Reference: the NIST ThermoML archive (doi:10.1021/acs.jced.6b00951)
± gives the expanded uncertainty stated by the source.

Settings: 100.3 kPa, Liquid; for viscosity: Capillary tube (Ostwald / Ubbelohde) method; for mass density: Vibrating tube method

O [water]
viscosity (288.15 K): 1.139 ± 0.016 mPa·s | viscosity (293.15 K): 1.002 ± 0.015 mPa·s | viscosity (298.15 K): 0.8897 ± 0.015 mPa·s | viscosity (303.15 K): 0.7988 ± 0.015 mPa·s | viscosity (308.15 K): 0.7184 ± 0.015 mPa·s | viscosity (313.15 K): 0.6525 ± 0.015 mPa·s | viscosity (318.15 K): 0.596 ± 0.015 mPa·s | viscosity (323.15 K): 0.547 ± 0.015 mPa·s | mass density (323.15 K): 988.04 ± 2.1 kg/m3 | viscosity (328.15 K): 0.5043 ± 0.015 mPa·s | mass density (328.15 K): 985.69 ± 2.1 kg/m3
